Results from patent US20180325914A1, “INCREASING STORAGE OF VITAMIN A, VITAMIN D AND/OR LIPIDS” (Salk Institute for Biological Studies, priority 2014, published 2018).

System: primary HSCs
Settings: mRNA-Seq expression

## Cc1sc2c(c1C)C(c1ccc(Cl)cc1)=N[C@@H](CC(=O)OC(C)(C)C)c1nnc(C)n1-2 [JQ1, (S)-tert-butyl 2-(4-(4-chlorophenyl)-2,3,9-trimethyl-6H-thieno[3,2-f][1,2,4]triazolo[4,3-a][1,4]diazepin-6-yl)acetate]
Day_6_JQ1
  Nav2 value_2: 5.311
  Ndn value_2: 33.2623
  Nnmt value_2: 30.0607
  Npr2 value_2: 10.1828
  Nradd value_2: 15.4656
  Nuak1 value_2: 12.6565
  Nudt18 value_2: 6.501
  Ogdhl value_2: 4.726
  Paqr8 value_2: 7.424
  Pcolce value_2: 103.689
  Pde4dip value_2: 14.9114
  Pdia5 value_2: 20.7466
  Pgcp value_2: 20.5624
  Pgm2 value_2: 36.9612
  Pkig value_2: 41.8645
  Pla2g4a value_2: 14.8571
  Plod3 value_2: 47.8896
  Ppp2r5b value_2: 15.5804
  Praf2 value_2: 50.8557
  Prnp value_2: 204.182
  Psd3 value_2: 5.579
  Ptger3 value_2: 6.064
  Ptgfrn value_2: 24.2749
  Ptk2b value_2: 17.1497
  Qsox1 value_2: 91.7197
  Rasl11a value_2: 68.0496
  Rasl11b value_2: 27.3606
  Reep5 value_2: 42.7167
  Rftn1 value_2: 20.5933
  Rhoq value_2: 36.4737
  Rian value_2: 23.3478
  Samd4 value_2: 15.2321
  Scd1 value_2: 23.3211
  Sec23a value_2: 28.8101
  Sepw1 value_2: 95.2318
  Serping1 value_2: 119.681
  Setbp1 value_2: 2.434
  Shroom3 value_2: 5.757
  Slc7a6 value_2: 20.2814
  Slc24a3 value_2: 3.111
  Snurf value_2: 6.708
  Steap2 value_2: 17.4478
  Thbs2 value_2: 44.7287
  Tmem9 value_2: 20.5522
  Tmem176a value_2: 136.733
  Tpm2 value_2: 114.662
  Ttc19 value_2: 10.9985
  Ufsp2 value_2: 21.3133
  Ypel5 value_2: 34.2738
  Zfp651 value_2: 5.6272
  Zmat3 value_2: 18.2014
  Zranb3 value_2: 2.608
  value_2, gene 2210013O21Rik: 38.055
  value_2, gene 2610018G03Rik: 7.783
  value_2, gene 2700094K13Rik: 52.964
  value_2, gene 2810055F11Rik: 9.372
  value_2, gene AI464131: 6.393
  value_2, gene Acadsb: 26.5141
  value_2, gene Aes: 188.935
  value_2, gene Agl: 8.667
  value_2, gene Ankrd44: 7.9209
  value_2, gene Aplp1: 20.7172
  value_2, gene Arhgap1: 99.931
  value_2, gene Aurka: 17.2799
  value_2, gene Bace1: 40.101
  value_2, gene Bmpr1a: 33.5187
  value_2, gene Bsg: 560.767
  value_2, gene Cacna2d1: 7.615
  value_2, gene Calm3: 185.514
  value_2, gene Ccdc3: 44.0572
  value_2, gene Ccdc102a: 12.129
  value_2, gene Ccdc122: 5.501
  value_2, gene Ccne1: 13.7889
  value_2, gene Cdc42bpg: 9.647
  value_2, gene Cenpa: 18.2009
  value_2, gene Cfh: 33.8709
  value_2, gene Clip3: 25.4738
  value_2, gene Cpeb2: 7.639
  value_2, gene Cpxm1: 119.242
  value_2, gene Ctsf: 19.6316
  value_2, gene Cxxc5: 28.6295
  value_2, gene Dhcr24: 17.3636
  value_2, gene Dynlt3: 74.0523
  value_2, gene Efna4: 6.053
  value_2, gene Ephb2: 12.3025
  value_2, gene Fam26e: 11.6803
  value_2, gene Fam168a: 23.5828
  value_2, gene Fat1: 68.0733
  value_2, gene Fkbp9: 153.585
  value_2, gene Fstl1: 883.839
  value_2, gene Gadd45g: 151.82
  value_2, gene Ggcx: 22.6363
  value_2, gene Gjc2: 5.148
  value_2, gene Gpam: 13.2457
  value_2, gene Gpnmb: 100.919
  value_2, gene Gpr153: 15.34
  value_2, gene Grb10: 117.152
  value_2, gene Gstm4: 11.4343
  value_2, gene Gtse1: 16.4741
  value_2, gene Gucylb3: 35.4413
  value_2, gene Gxylt2: 8.031
  value_2, gene Hic1: 40.7263
  value_2, gene Hspb6: 15.1361
  value_2, gene Htra1: 128.76
  value_2, gene Irs2: 11.6492
  value_2, gene Itgb5: 206.046
  value_2, gene Kcnab1: 5.987
  value_2, gene Kctd11: 40.3428
  value_2, gene Kidins220: 34.7188
  value_2, gene Lamb1: 116.83
  value_2, gene Large: 40.5667
  value_2, gene Lass6: 16.8557
  value_2, gene Lbh: 311.939
  value_2, gene Lrp1: 247.494
  value_2, gene Lynx1: 16.3298
  value_2, gene Maged1: 209.848
  value_2, gene Map1lc3a: 83.7075
  value_2, gene Marveld1: 50.0393
  value_2, gene Mmab: 8.1326
  value_2, gene Morc4: 8.504
  value_2, gene Mpp6: 75.1224
  value_2, gene Mxra8: 126.008
  value_2, gene Mypop: 8.4789
  value_2, gene Nans: 59.0594
  value_2, gene Ngfrap1: 196.152
  value_2, gene Nxn: 73.7521
  value_2, gene Ogn: 68.5101
  value_2, gene Olfml3: 169.404
  value_2, gene Oxct1: 46.8229
  value_2, gene Palm: 43.4603
  value_2, gene Parva: 84.643
  value_2, gene Pbxip1: 66.9739
  value_2, gene Pcbp4: 31.1679
  value_2, gene Pde5a: 4.315
  value_2, gene Pdk3: 17.7734
  value_2, gene Pdlim5: 120.722
  value_2, gene Pdrg1: 77.2251
  value_2, gene Pdzrn3: 35.4736
  value_2, gene Pgp: 55.4841
  value_2, gene Pgrmc1: 110.711
  value_2, gene Plcxd2: 8.321
  value_2, gene Plk4: 7.27
  value_2, gene Ppic: 178.683
  value_2, gene Pqlc3: 21.232
  value_2, gene Prdx4: 90.3086
  value_2, gene Prkab2: 26.0507
  value_2, gene Prr11: 6.831
  value_2, gene Prrx1: 33.6888
  value_2, gene Ptk7: 33.1681
  value_2, gene Ptprs: 25.6268
  value_2, gene Rab11fip5: 18.6008
  value_2, gene Rbfox2: 31.4181
  value_2, gene Rbms3: 14.5408
  value_2, gene Rhou: 27.2789
  value_2, gene Rrm1: 37.9825
  value_2, gene Rsu1: 115.627
  value_2, gene Sepn1: 53.0761
  value_2, gene Shisa4: 29.5421
  value_2, gene Sidt2: 85.8124
  value_2, gene Sil1: 25.0211
  value_2, gene Smpd1: 40.8765
  value_2, gene Snx7: 31.6545
  value_2, gene Sparc: 3945.98
  value_2, gene St3gal2: 27.017
  value_2, gene St6galnac6: 21.1878
  value_2, gene Ston1: 80.759
  value_2, gene Suox: 13.7986
  value_2, gene Synpo: 128.3
  value_2, gene Tln2: 10.7793
  value_2, gene Tmem176b: 232.156
  value_2, gene Tubb2a: 56.747
  value_2, gene Tulp4: 15.6577
  value_2, gene Tyms: 9.8
  value_2, gene Unc5b: 142.372
  value_2, gene Vcl: 188.104
  value_2, gene Wbp5: 336.924
  value_2, gene Zfp449: 5.689
Primary HSCs, day 6 with JQ1
  4833442J19Rik value_2 (Day_6_JQ1): 5.928
  4930583H14Rik value_2 (Day_6_JQ1): 0.6572
  AA467197 value_2 (Day_6_JQ1): 1.792
  AI427809 value_2 (Day_6_JQ1): 0.3782
  Acta1 value_2 (Day_6_JQ1): 5.299
  Actg2 value_2 (Day_6_JQ1): 9.747
  Adamtsl2 value_2 (Day_6_JQ1): 0.6746
  Ak4 value_2 (Day_6_JQ1): 2.207
  Alox5ap value_2 (Day_6_JQ1): 1.8396
  Angpt4 value_2 (Day_6_JQ1): 2.216
  Aoc3 value_2 (Day_6_JQ1): 0.7708
  Atp1a3 value_2 (Day_6_JQ1): 1.07
  Bcat1 value_2 (Day_6_JQ1): 1.171
  C1qtnf2 value_2 (Day_6_JQ1): 1.262
  C1qtnf5 value_2 (Day_6_JQ1): 5.303
  Cck value_2 (Day_6_JQ1): 0.3139
  Ccl12 value_2 (Day_6_JQ1): 0.2748
  Cdh3 value_2 (Day_6_JQ1): 1.477
  Cdh6 value_2 (Day_6_JQ1): 0.764
  Chd3 value_2 (Day_6_JQ1): 4.386
  Chst11 value_2 (Day_6_JQ1): 22.6881
  Cnn1 value_2 (Day_6_JQ1): 5.628
  Col6a2 value_2 (Day_6_JQ1): 6.3149
  Col6a3 value_2 (Day_6_JQ1): 7.234
  Col7a1 value_2 (Day_6_JQ1): 0.5444
  Col11a1 value_2 (Day_6_JQ1): 4.303
  Col15a1 value_2 (Day_6_JQ1): 0.2832
  Csdc2 value_2 (Day_6_JQ1): 0.913
  Cthrc1 value_2 (Day_6_JQ1): 4.104
  D430019H16Rik value_2 (Day_6_JQ1): 1.971
  Def6 value_2 (Day_6_JQ1): 0.8624
  Des value_2 (Day_6_JQ1): 14.4745
  Dkk2 value_2 (Day_6_JQ1): 0.918
  Dok5 value_2 (Day_6_JQ1): 1.203
  Dpep1 value_2 (Day_6_JQ1): 0.6357
